# Like-named read-outs stand apart in the source and are kept apart here.
# Assays:
# [1] = system: human embryonic stem cell-derived cardiomyocytic cells (contracting embryoid bodies); assay: Chronotropic responses of contracting embryoid bodies, multielectrode array extracellular recordings; format: cell-based; details: for spontaneous contraction rate, % of baseline (initial) value: drug at 10^−6 M (1 μM)
# Text: Multielectrode array (MEA) extracellular electrophysiology mapping and pharmacological studies: Intact contracting areas within the embryoid bodies were mechanically dissected using a pulled-glass micropipette and plated on gelatin-coated multielectrode arrays (Multi Channel Systems MCS GmbH, Reutlingen, Germany; Igelmund, P. et al., 1999. Pflugers Arch. 437: 669). The microelectrode array consists of 60 titanium nitride electrodes with gold contacts 30 μm in diameter with an interelectrode distance of 100-200 μm. The contracting areas were plated on top of the microelectrode arrays and cells were grown to confluence over the electrodes. […] Extracellular signals were recorded simultaneously from all 60 electrodes at 25 kHz and band-pass filtered from 1 to 3000 Hz. Recordings were performed in culture medium at 37° C. A pH of 7.4 was maintained using perfusion with an atmosphere containing 5% CO2 and 95% air. Chronotropic responses were assessed by extracellular recordings for 10 minutes prior to and following […], 1 μM carbamylcholine, 10 μM 3-isobutyl-1-methylxanthine (IBMX), or 1 μM forskolin (all from Sigma). Statistical analysis: Data are expressed as mean ±standard deviation. In order to assess possible chronotropic effects, the average spontaneous beating rate was compared prior to and following drug application using two-tailed paired Student's t test.
# [2] = system: human embryonic stem cell line H9.2 embryoid bodies; assay: Cardiomyocyte differentiation efficiency, percentage of contracting embryoid bodies; format: cell-based
# Text: Generation of human embryonic stem cell-derived cardiomyocytic cells: Ten different human embryonic stem cell lines including line H9 or its single cell clonal derivative H9.2 (Amit, M. et al., 2000. Dev. Biol. 227: 271) were individually grown on a mitotically inactivated (mitomycin C) mouse embryonic fibroblast feeder cell layer in culture medium, as previously described (Thomson, J. A. et al., 1998. Science 282: 1145). The culture medium consisted of 80% knockout DMEM (no-pyruvate, high-glucose formulation; Life Technologies, Inc., Rockville, Md., USA.) supplemented with 20% FBS (HyClone, Logan, Utah, USA.), 1 mM L-glutamine, 0.1 mM mercaptoethanol, and 1% nonessential amino acid stock (all from GIBCO-BRL). To induce differentiation, embryonic stem cells were dispersed into small clumps (3-20 cells) using collagenase IV (Life Technologies, Inc., 1 mg/ml for 20 minutes). […] The percentage of embryoid bodies displaying contracting areas, as well as the distribution of the timing of onset of spontaneous beating were evaluated. […] In addition, the effect of DMSO, a known stimulant of differentiation into cardiomyocytic lineage was assessed by adding dimethyl sulfoxide (Sigma Chemical Co., St. Louis, Mo., USA.) at a concentration of 0.75% (vol/vol) to the culture medium during the 10 days of growth in suspension. […]
# [3] = system: human embryonic stem cell-derived cardiomyocytic tissue (contracting embryoid bodies); assay: Pharmacological analysis of conduction, multielectrode array activation mapping of embryoid bodies; format: cell-based; parameters: Global Velocity / Mean CV Vector: unit not given here; details: for total activation time: one embryoid body
# [4] = system: hybrid rat ventricular myocyte-human embryonic stem cell-derived cardiomyocyte co-cultures; assay: Electrical coupling in hybrid human ES cell-derived cardiomyocyte / neonatal rat ventricular myocyte co-cultures on microelectrode array; format: cell-based
# Description: Performed as described above in Example 2 of the Examples section. Primary monolayer cultures of neonatal rat (Sprague Dawley) ventricular myocytes were prepared as previously described (Fast V G. and Kleber A G., 1993. Circ Res. 73:914). Briefly, following excision, the ventricles were minced and treated with RDB (IIBR, Ness-Ziona, Israel). Dispersed cells were then cultured on gelatin coated (0.1%) microelectrode array plates or on glass cover slips at a density of 1.5×10^6 cells/ml. […] Pacing studies in co-cultures were performed by electrically stimulating the human or rat tissues with one of the electrodes of the multielectrode array. The degree of electrical coupling between the two tissue types was also assessed during long term recordings and during adrenergic stimulation and partial gap junction uncoupling. The cycle-lengths of the electrical activity in the ES cell-derived cardiomyocytes and in the rat tissue were measured and a histogram depicting the ratio between these two cycle-lengths during long-term recordings is shown in FIG. 16i.
# [5] = system: swine model of complete atrioventricular block; assay: Swine complete atrioventricular block model transplanted with human ES cell-derived cardiomyocytic cells, rate of new ventricular rhythm; format: in vivo; details: following isoproterenol (20 μM); rate before 68±4 beats/minute
# [6] = extracellular potassium 10 mM, n=7
# [7] = extracellular potassium 15 mM, n=7
# [8] = extracellular potassium 20 mM, n=7
smiles,measurement,setting,value
CN1[C@@H]2CC[C@H]1C[C@@H](OC(=O)C(CO)c1ccccc1)C2 (some centres unmarked) [atropine],effect on carbamylcholine-induced decrease of spontaneous contraction rate,[1],reversed
"C[S+](C)[O-] [DMSO, dimethyl sulfoxide]",increase of the percentage of embryoid bodies with cells displaying cardiac lineage differentiation,[2]; 0.75 percent (v/v) dimethyl sulfoxide,about 20%
same,percentage of embryoid bodies demonstrating contracting areas,"[2]; DMSO 0.75% (vol/vol) during suspension, 8.1% without",10.1%
C[N+](C)(C)CCOC(N)=O.[Cl-] [carbamylcholine],"spontaneous contraction rate, % of baseline (initial) value",[1]; mean ± SD,78±20%
"CC(C)Cn1c(=O)n(C)c(=O)c2[nH]cnc21 [IBMX, 3-isobutyl-1-methylxanthine]","spontaneous contraction rate, % of initial value","[1]; 10 μM IBMX, n=6, mean ± SD",152±77%
"CCCCCCCO [Heptanol, 1-Heptanol]",total activation time,"[3]; 1-heptanol 0.3 mM, baseline 15 milliseconds",32 milliseconds
same,effect of higher doses on beating,"[3]; 1-heptanol 0.6 and 1 mM, n=8",complete cessation of beating
same,Global Velocity,"[3]; heptanol 0.3 mM, n=7",1.7 ± 0.6
same,Maximal − dv/dt,"[3]; heptanol 0.3 mM, n=7",2.0 ± 2.3 mV/sec
same,Mean CV Vector,"[3]; heptanol 0.3 mM, n=7",3.0 ± 5.7
same,Global Velocity,[3]; heptanol 0.6 mM,1.2 ± 0.9
same,Maximal − dv/dt,[3]; heptanol 0.6 mM,2.1 ± 3.0 mV/sec
same,Mean CV Vector,[3]; heptanol 0.6 mM,3.0 ± 3.8
same,Global Velocity,[3]; heptanol 1 mM,No conduction
same,Maximal − dv/dt,[3]; heptanol 1 mM,No conduction
same,Mean CV Vector,[3]; heptanol 1 mM,No conduction
same,co-cultures in which tight coupling was not altered,[4]; 1-Heptanol 0.5 mM,5 of the 8
same,co-cultures with occasional episodes of 2:1 conduction block,"[4]; 1-Heptanol 0.5 mM, 8 co-cultures studied",3
[K+] [Potassium],Global Velocity,[3]; [6],1.6 ± 0.6
same,Maximal − dv/dt,[3]; [6],2.7 ± 5.5 mV/sec
same,Mean CV Vector,[3]; [6],3.5 ± 4.2
same,total activation time,"[3]; extracellular potassium 10 mM, baseline 25 milliseconds",40 milliseconds
same,Global Velocity,[3]; [7],1.0 ± 0.3
same,Maximal − dv/dt,[3]; [7],1.1 ± 1.4 mV/sec
same,Mean CV Vector,[3]; [7],2.0 ± 2.3
same,total activation time,"[3]; extracellular potassium 15 mM, baseline 25 milliseconds",70 milliseconds
same,Global Velocity,[3]; [8],1.0 ± 0.4
same,Maximal − dv/dt,[3]; [8],1.1 ± 1.2 mV/sec
same,Mean CV Vector,[3]; [8],1.5 ± 1
same,total activation time,"[3]; extracellular potassium 20 mM, baseline 25 milliseconds",120 milliseconds
C=C[C@@]1(C)CC(=O)[C@]2(O)[C@@]3(C)[C@@H](O)CCC(C)(C)[C@@H]3[C@H](O)[C@H](OC(C)=O)[C@@]2(C)O1 [forskolin],"spontaneous contraction rate, % of baseline (initial) value",[1]; mean ± SD,182±48%
"NC1=N[C@H](O)[C@H]2[C@H]3O[C@]4(O)O[C@@H]([C@@H](O)[C@@]2(N1)[C@@H]4O)[C@]3(O)CO [TTX, tetrodotoxin]",Global Velocity,[3],1.8 ± 0.9
same,Maximal − dv/dt,[3],1.9 ± 1.9 mV/sec
same,Mean CV Vector,[3],3.2 ± 3
same,total microelectrode array activation time,[3],35 milliseconds
"COc1ccc([C@@H]2Sc3ccccc3N(CCN(C)C)C(=O)[C@@H]2OC(C)=O)cc1.Cl [Diltiazem, diltiazem hydrochloride]",Global Velocity,[3],2.8 ± 2.0
same,Maximal − dv/dt,[3],2.5 ± 4.2 mV/sec
same,Mean CV Vector,[3],5.7 ± 4.2
same,"changes in the conduction parameters studied (global velocity, local velocity vector, −dV/dtmax)",[3],did not result in significant changes
"CC(C)NCC(O)c1ccc(O)c(O)c1 (centres unmarked) [Isoproterenol, isoproterenol]",chronotropic response of contracting embryoid bodies,[1]; 10 μM isoproterenol,positive chronotropic responses
same,"spontaneous contraction rate, % of baseline (initial) value",[1]; mean ± SD,146±43%
same,electrical coupling between the two cell types,[4]; isoproterenol 10 μM,not hindered
same,spontaneous beating rate,"[4]; isoproterenol 10 μM, base line 1.6±0.6 Hz, p<0.05",1.9±0.8 Hz
same,heart rate of the new ventricular rhythm,[5],105±10 beats/minute
